The nature of the data set: method code G-GLC, from DOI: 10.1021/je0101909.
`Clc1cc(-c2cc(Cl)c(Cl)c(Cl)c2)cc(Cl)c1Cl`: the logP stood at 7.01.

On to `Clc1cc(-c2cc(Cl)c(Cl)c(Cl)c2Cl)cc(Cl)c1Cl`, for which the logP was 7.15.

`Clc1cc(-c2ccc(Cl)c(Cl)c2Cl)cc(Cl)c1Cl` registered a logP of 6.73.

`Clc1ccc(-c2ccc(Cl)c(Cl)c2Cl)cc1Cl` had a logP of 6.61.

Regarding `Clc1ccc(-c2cc(Cl)c(Cl)c(Cl)c2)cc1Cl`, the logP was determined as 6.56.

The molecule `Clc1ccc(-c2cc(Cl)c(Cl)c(Cl)c2Cl)cc1Cl` displayed a logP of 6.75.

`Clc1ccc(-c2cc(Cl)c(Cl)c(Cl)c2)c(Cl)c1` gave a logP of 6.5.

`Clc1cc(Cl)c(-c2cc(Cl)c(Cl)c(Cl)c2)cc1Cl` showed a logP of 6.82.

`Clc1ccc(-c2cc(Cl)c(Cl)cc2Cl)cc1Cl` showed a logP of 6.49.

The molecule `Clc1ccc(-c2cc(Cl)c(Cl)c(Cl)c2Cl)cc1` registered a logP of 6.47.

`Clc1ccc(-c2cc(Cl)c(Cl)c(Cl)c2)cc1`: the logP is 6.53.

For the origin of these results see the SangsterLogP compilation.
